Data on three molecules can be found in ChEMBL document CHEMBL5356988, “Diversely functionalized isoquinolines and their core-embedded heterocyclic frameworks: a privileged scaffold for medicinal chemistry” (RSC Med Chem, 2023).

Test [1] deals with HGC-27. The test is described as follows: Antiproliferative activity against human HGC-27 cells assessed as reduction in cell viability by CCK-8 assay. In kind it is functional, cell-based.
The target in test [2] is T1, Interleukin-5 (Homo sapiens, UniProt P05113).
T1 sequence (P05113 whole entry): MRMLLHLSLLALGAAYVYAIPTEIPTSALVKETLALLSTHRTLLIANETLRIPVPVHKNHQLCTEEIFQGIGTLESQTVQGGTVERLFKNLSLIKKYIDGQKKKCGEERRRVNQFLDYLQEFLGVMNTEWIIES
Put plainly: Inhibition of IL-5 (unknown origin).

Structures are written as SMILES.

As usually defined, the IC50 is the concentration that inhibits the measured activity by half.

For the molecule `Fc1ccc(/C=C/c2nccc3ccccc23)c(F)c1`, the IC50 in test [1] stood at 40 nM.

Consider `Fc1ccc(/C=C/c2nccc3ccccc23)cc1F`, for which, in test [1], the concentration for half-maximal inhibition (IC50) stood at 80 nM. Consider `C=C1Oc2c(ccc3cc(C)ncc23)C1=O`, for which the IC50 in test [2] is 2000 nM.
